Columns and labels:
Format in all cases: physicochemical
[1] = Solvent stability: strontium distribution ratios as a function of contact time with 1.5 M HNO3
Procedure: (§1) The stability of the mixed extractant solvents prepared using dialkyloxycalix[4]arenebenzocrown-6 compounds (MC-8, MC-8B, MC-10, MC-10B, MC-12, or MC-12B) relative to BOBCalixC6 in the FPEX I process solvent was determined. Samples were prepared using each of the dialkyloxycalix[4]arenebenzocrown-6 compounds and contacted with 1.5 M HNO3. The samples included 0.007 M of the respective dialkyloxycalix[4]arenebenzo-crown-6 compound (MC-8, MC-8B, MC-10, MC-10B, MC-12, or MC-12B), 0.075 M DtBuCH18C6, 0.75 M Cs-7SB modifier, and 0.003 M TOA in ISOPAR® L. The stability of the dialkyloxycalix[4]arene-benzocrown-6 based solvents was evaluated by measuring the cesium and strontium distribution ratios as a function of contact time. These cesium and strontium distribution ratios for the mixed extractant solvents are presented in Table 9 and Table 10, respectively, along with the cesium and strontium distribution ratios for the FPEX I process solvent. The symbol “-” is used in Tables 9 and 10 to indicate no data was collected.
(§2) This degradation is likely due to chemical attack or nitration of the BOBCalixC6 in the FPEX I process solvent. […] However, it is difficult to compare the relative extents of degradation. In order to compare the different extractants, the distribution ratio data presented in Tables 9 and 10 were normalized to the values obtained at t=0 days contact. The normalized cesium and strontium distribution ratios for the FPEX I process solvent and the mixed extractant solvents as a function of contact time are presented in FIGS. 2 and 3, respectively.

[2] = Third phase formation on contact with nitric acid
[3] = Strontium distribution ratio (DSr), equilibrium batch contact of mixed extractant solvent with nitric acid feed; conditions: for Strontium distribution ratio, contact E1: first forward extraction, 1.5 M HNO3 feed simulant, 0.007 M calixarene, 0.075 M DtBuCH18C6, 0.75 M Cs-7SB, 0.003 M TOA in ISOPAR L; for Strontium distribution ratio, contact E1 / Strontium distribution ratio, contact E2 / Strontium distribution ratio, contact E3: 25 °C; for Strontium distribution ratio, contact St1: first strip with 0.01 M HNO3, 35 °C; for Strontium distribution ratio, contact St1 / Strontium distribution ratio, contact E2 / Strontium distribution ratio, contact St2 / Strontium distribution ratio, contact E3: 0.007 M calixarene solvent; for Strontium distribution ratio, contact E2: second forward extraction; for Strontium distribution ratio, contact E2 / Strontium distribution ratio, contact E3: 1.5 M HNO3 feed; for Strontium distribution ratio, contact St2: second strip with 0.01 M HNO3, 35 °C; for Strontium distribution ratio, contact E3: third forward extraction
[4] = Cesium distribution ratio (DCs), equilibrium batch contact of mixed extractant solvent with nitric acid feed; conditions: for Cesium distribution ratio, contact E1: first forward extraction, 1.5 M HNO3 feed simulant, 0.075 M DtBuCH18C6, 0.75 M Cs-7SB, 0.003 M TOA in ISOPAR L; for Cesium distribution ratio, contact E1 / Cesium distribution ratio, contact E2 / Cesium distribution ratio, contact E3: 25 °C; for Cesium distribution ratio, contact St1: first strip with 0.01 M HNO3, 35 °C; for Cesium distribution ratio, contact St1 / Cesium distribution ratio, contact E2 / Cesium distribution ratio, contact St2 / Cesium distribution ratio, contact E3: 0.007 M calixarene solvent; for Cesium distribution ratio, contact E2: second forward extraction; for Cesium distribution ratio, contact St2: second strip with 0.01 M HNO3, 35 °C; for Cesium distribution ratio, contact E3: third forward extraction
Text: The distribution of cesium and strontium between the first organic phase (the mixed extractant solvent including the dialkyloxycalix[4]arenebenzocrown-6 compound) and the first aqueous phase (aqueous feed) may be determined by conventional techniques. The distribution ratio for strontium (“DSr”) may be calculated as the ratio of organic phase activity to the aqueous phase activity at equilibrium. High values for the DSr indicate that the strontium is present predominantly in the organic phase while low values for the DSr indicate that the strontium is present predominantly in the aqueous phase. Similarly, the distribution ratio for cesium (“DCs”) may be calculated as the ratio of organic phase activity to the aqueous phase activity at equilibrium. High values for the DCs indicate that the cesium is present predominantly in the organic phase while low values for the DCs indicate that the cesium is present predominantly in the aqueous phase.
Distribution ratios (DM=[M]org/[M]aq) were measured by equilibrium batch contacts between the organic and aqueous phases at an organic-to-aqueous phase ratio (O/A) of unity (O/A=1). All distribution ratio measurements were conducted in a temperature controlled water bath at 25±1° C. The aqueous phase was of the appropriate HNO3 concentration, to which trace quantities (typically, less than 10^−7 M each) of the major radionuclides of interest (^137Cs, ^85Sr, ^154Eu, or ^241Am) were added. The organic and aqueous phases were contacted by vortex mixing for 1 minute. All batch contact experiments were performed at ambient temperature (from approximately 20° C. to approximately 25° C.) unless otherwise noted. Following extraction, the samples were centrifuged for 1 minute and the organic and aqueous phases separated by pipet or centrifugation. The distribution ratios (DSr, or DCs) were calculated as the ratio of the appropriate specific activities in the organic and aqueous phases as determined by γ-ray counting (gamma spectroscopy). The counting time was selected to provide less than approximately 1% statistical uncertainty.
(MC-8, MC-8B, MC-10, MC-10B, MC-12, or MC-12B), 0.075 M DtBuCH18C6, 0.75 M Cs-7SB modifier, and 0.003 M TOA in ISOPAR® L were evaluated for their respective abilities to simultaneously extract cesium and strontium from the aqueous feed simulant composition described in Table 2. The cesium and strontium distribution ratios of the mixed extraction solvents were compared to those of the FPEX I process solvent. The cesium extraction performance and strontium extraction performance of each of the mixed extractant solvents was determined using the batch contact flowsheet presented in FIG. 1, where “E1,” “E2,” and “E3” refer to three forward extraction acts: a first extraction act, a second extraction act, and a third extraction act, respectively, and “St1” and “St2” refer to two backward extraction acts: a first strip act and a second strip act, respectively. […] The aqueous feed 2 and the mixed extractant solvent 4 were combined in a vessel 6 to conduct the extraction. Two phases were formed during the extraction: the first organic phase and the first aqueous phase, with the cesium and strontium substantially distributed in the first organic phase.
The cesium and strontium distribution ratios for the mixed extractant solvents 4 were calculated for the first organic phase and are reported in Tables 3 and 4, respectively, as E1, along with the cesium and strontium distribution ratios for the FPEX I process solvent. The cesium and strontium were stripped from the first (and subsequent) organic phase to recover these radionuclides. For the strips or backward extractions, the first (and subsequent) organic phase was contacted with dilute acidic solution 8, which was 0.01 M HNO3. […]

[5] = Solvent stability: cesium distribution ratios as a function of contact time with 1.5 M HNO3
Procedure: as §1, §2

[6] = contact time 0 days with 1.5 M HNO3, 0.007 M calixarene, 0.075 M DtBuCH18C6, 0.75 M Cs-7SB, 0.003 M TOA in ISOPAR L
[7] = contact time 34 days with 1.5 M HNO3
[8] = contact time 70 days with 1.5 M HNO3
[9] = contact time 278 days with 1.5 M HNO3
[10] = contact time 36 days with 1.5 M HNO3
[11] = contact time 244 days with 1.5 M HNO3

Compound	Strontium distribution ratio as a function of contact time [1, 6]	Cesium distribution ratio as a function of contact time [5, 6]	Cesium distribution ratio as a function of contact time [5, 9]	Strontium distribution ratio, contact E1 [3]	Strontium distribution ratio, contact St1 [3]	Strontium distribution ratio, contact E2 [3]	Strontium distribution ratio, contact St2 [3]	Strontium distribution ratio, contact E3 [3]	Cesium distribution ratio, contact E1 ([4]; 0.007 M calixarene)	Cesium distribution ratio, contact St1 [4]	Cesium distribution ratio, contact E2 ([4]; 1.5 M HNO3 feed)	Cesium distribution ratio, contact St2 [4]	Cesium distribution ratio, contact E3 ([4]; 1.5 M HNO3 feed)	further results
4′,4′,(5′)-di-(t-butyldicyclohexano)-18-crown-6 [DtBuCH18C6, reference compound]														stability (normalized strontium distribution ratios, FIG. 3) ([1]; prolonged contact with HNO3): subject to degradation following prolonged contact with HNO3
CC(C)(C)CC(C)(C)c1ccc2c(c1)OCCOCCOc1c3cccc1Cc1cccc4c1OCCOCCOc1cc(C(C)(C)CC(C)(C)C)ccc1OCCOCCOc1c(cccc1C3)Cc1cccc(c1OCCOCCO2)C4 [BOBCalixC6, calix[4]arene-bis(tert-octylbenzo)-crown-6, reference compound]														third phase formation ([2]; 5 M HNO3, 0.025 M BOBCalixC6, 0.075 DtBuCH18C6, 0.003 M TOA, 0.75 M EXXAL 12 in ISOPAR L): Third phase formation was observed
CCC(C)c1ccc(OCC(O)COCC(F)(F)C(F)F)cc1 (centres unmarked) [Cs-7SB, 1-(2,2,3,3-tetrafluoropropoxy)-3-(4-sec-butylphenoxy)-2-propanol, reference compound]														nitric acid concentration above which a third phase forms ([2]; mixed extractant solvent with Cs-7SB as modifier added to aqueous feed): > 1.5 M
CCCCC(CC)COc1c2cccc1Cc1cccc3c1OCCOCCOc1ccccc1OCCOCCOc1c(cccc1Cc1cccc(c1OC[C@H](CC)CCCC)C3)C2 (some centres unmarked) [MC-8B, 1,3-alternate-25,27-di(2-ethylhexyl-1-oxy)calix[4]arenebenzocrown-6]	8.9	1.36	2.8	8.9	0.06	8.3	0.01	8.1	1.4	0.2	1.1	0.1	1.0	Strontium distribution ratio as a function of contact time [1, 7]: 7.2; Strontium distribution ratio as a function of contact time [1, 8]: 9.3; Strontium distribution ratio as a function of contact time [1, 9]: 7.6; cesium distribution ratios, comparison in words ([4]; 0.007 M calixarene, 1.5 M HNO3 feed): lowest distribution ratios; Cesium distribution ratio as a function of contact time [5, 7]: 0.8; Cesium distribution ratio as a function of contact time [5, 8]: 1.5; stability toward hydrolytic degradation (normalized cesium distribution ratios, FIG. 2) ([5]; prolonged contact with 1.5 M HNO3): most resistant toward hydrolytic degradation
CCCCC(CCCC)CCCOc1c2cccc1Cc1cccc3c1OCCOCCOc1ccccc1OCCOCCOc1c(cccc1Cc1cccc(c1OCCCC(CCCC)CCCC)C3)C2 [MC-12B, 1,3-alternate-25,27-di(4-butyloctyl-1-oxy)calix[4]arenebenzocrown-6]	6.3	3.3		7.7	0.03	6.7	0.02	6.3	2.5	0.4	1.3	0.2	1.1	Strontium distribution ratio as a function of contact time [1, 10]: 6.9; Strontium distribution ratio as a function of contact time [1, 11]: 5.7; Cesium distribution ratio as a function of contact time [5, 10]: 2.1; Cesium distribution ratio as a function of contact time [5, 11]: 1.8

More lines, main results first:

Strontium distribution ratio as a function of contact time [1, 6]	Cesium distribution ratio as a function of contact time [5, 6]	Cesium distribution ratio as a function of contact time [5, 9]	Compound	Strontium distribution ratio, contact E1 [3]	Strontium distribution ratio, contact St1 [3]	Strontium distribution ratio, contact E2 [3]	Strontium distribution ratio, contact St2 [3]	Strontium distribution ratio, contact E3 [3]	Cesium distribution ratio, contact E1 ([4]; 0.007 M calixarene)	Cesium distribution ratio, contact St1 [4]	Cesium distribution ratio, contact E2 ([4]; 1.5 M HNO3 feed)	Cesium distribution ratio, contact St2 [4]	Cesium distribution ratio, contact E3 ([4]; 1.5 M HNO3 feed)	further results
9.5	3.7	1.1	CCCCCCCCCCOc1c2cccc1Cc1cccc3c1OCCOCCOc1ccccc1OCCOCCOc1c(cccc1Cc1cccc(c1OCCCCCCCCCC)C3)C2 [MC-10, 1,3-alternate-25,27-di(decyloxy)calix[4]arenebenzocrown-6]	9.5	0.06	8.4	0.01	8.3	3.7	0.5	2.0	0.2	1.6	Strontium distribution ratio as a function of contact time [1, 7]: 7.7; Strontium distribution ratio as a function of contact time [1, 8]: 9.0; Strontium distribution ratio as a function of contact time [1, 9]: 7.7; Cesium distribution ratio as a function of contact time [5, 7]: 3.0; Cesium distribution ratio as a function of contact time [5, 8]: 3.5
7.5	3.0	2.8	CCCCCCCCCCCCOc1c2cccc1Cc1cccc3c1OCCOCCOc1ccccc1OCCOCCOc1c(cccc1Cc1cccc(c1OCCCCCCCCCCCC)C3)C2 [MC-12, 1,3-alternate-25,27-di(dodecyloxy)calix[4]arenebenzocrown-6]	7.7	0.04	7.5	0.01	7.0	2.9	0.4	1.7	0.2	1.3	Strontium distribution ratio as a function of contact time [1, 10]: 7.1; Strontium distribution ratio as a function of contact time [1, 11]: 6.1; Cesium distribution ratio as a function of contact time [5, 10]: 2.5; Cesium distribution ratio as a function of contact time [5, 11]: 2.2
